Like-named read-outs stand apart in the source and are kept apart here.
Tests used:
[1] = Stability of the four compounds in plasma samples (QC samples); conditions: n = 5
Procedure: In a 1.5 mL EP tube, 100 μL of plasma sample was mixed with 10 µL 1% formic acid–water, 10 μL IS (0.2011 μg/mL), and 400 μL acetonitrile. The mixture was then vortexed for 5 min, followed by sonication for 10 min at 40 kHz and centrifugation at 14,000 rpm for 10 min. The supernatant obtained was transferred to another tube and evaporated to dryness under a nitrogen vacuum at 37°C. The residue obtained was reconstituted with 150 μL of the initial mobile phase, and the centrifugation process was repeated. The supernatant thus obtained was then used for further analysis.
Similarly, QC samples of three concentrations (low, medium, and high) were prepared.
The specificity of the method was evaluated by comparing the retention times of analytes and IS in the blank matrix, blank matrix spiked with the four analytes and IS, and the samples after oral administration of CA extract. Calibration curves were constructed by comparing the ratio of peak areas of the four analytes to that of IS versus the concentration of the four analytes. Calibration curves were fitted via linear weighted (1/X ^ 2 ) least–squares regression. The intra–and inter–day precision and accuracy were estimated by analyzing QC samples at different concentrations on the same day and three consecutive validation days, respectively. The extraction recovery was evaluated by determining the peak area of analytes in QC samples compared with that in extracted matrix samples. The relative standard deviation of the extraction recovery of analytes at each level was retained at ≤20.0%. The following parameters of stability were assessed: short–term stability (24 h at room temperature), processed sample stability (24 h at 4°C), freeze–thaw stability (3 cycles), and auto–sampler stability (6 h at room temperature). QC samples of different concentrations were used for stability analysis.

[2] = Tissue distribution study after oral administration of CA extract in normal and FD rats
Procedure: UPLC–MS/MS analysis was conducted using the ACQUITY UPLC system (Waters Corp., Milford, MA, United States) equipped with a Xevo–TQ mass spectrometer (Waters Corp., Milford, MA, United States) with an electrospray ionization (ESI) interface and triple quadrupole mass analyzer.
The ACQUITY UPLC® BEH C18 column (2.1 mm × 50 mm, 1.7 μm, Waters, United States) was used for separation and was maintained at 40°C. The mobile phase consisted of 0.1% formic acid in water (A) and 0.1% formic acid–acetonitrile (B) for PK study and 0.2% formic acid in water (A) and 0.2% formic acid–acetonitrile (B) for tissue distribution study. The mobile phase was eluted as a gradient, as follows: 0–0.5 min, 10% B; 0.5–3.0 min, 15% B; 3.0–3.2 min, 25% B; 3.2–4.0 min, 30% B; 4.0–4.5 min, 32% B; 4.5–6.0 min, 90% B; and 6.0 min, 10% B. The flow rate was set at 0.35 mL/min and the injection volume was 2 μL for the PK study and 1 μL for the tissue distribution study.
The four active components of CA were quantified using multiple reaction monitoring under negative ion mode. The following m/z transitions were chosen for quantification: baishouwu benzophenone 301.00→283.00, deacylmetaplexigenin 379.15→361.20, qingyangshengenin 499.20→137.00, syringic acid 197.20→181.95, and puerarin (internal standard, IS) 415.10→267.05. The collision energy was 15, 15, 35, 15, and 35 V, respectively ([Sun et al., 2022]). ESI mode was operated under the following conditions: capillary voltage, 1 kV; desolvation gas (N2), 1000 L/h; collision gas (Ar2), 150 L/h; desolvation temperature, 400°C; and source temperature, 120°C.
Additionally, stomach and small intestinal tissues were diluted three times to obtain a tissue homogenate. Then, 300 μL of this tissue homogenate was mixed with 30 μL 1% formic acid-water, 20 μL IS, and 1.2 mL acetonitrile. The mixture was then vortexed for 5 min, sonicated for 10 min, and then stored at −20°C for 30 min. Subsequently, the mixture was centrifuged at 14,000 rpm for 10 min. The supernatant obtained was then transferred to another tube and evaporated to dryness at 37°C under nitrogen. The dried residue was reconstituted with 200 μL of the 50% methanol–water, and the centrifugation process was repeated. The obtained supernatant was then used for further analysis.
SD rats were randomly divided into normal and FD groups (n = 30 each) and orally administered 10 mL/kg of CA extract solution. The rats were sacrificed at 10, 30 min, 1, 2, and 4 h after administration (6 rats per time point). Subsequently, their heart, liver, spleen, lung, kidney, brain, small intestine, and stomach were removed. The tissue samples were then washed in saline solution and wiped with filter paper. Subsequently, all tissues were stored at −80°C until analysis.

[3] = PK study: plasma pharmacokinetics after oral administration of CA extract in normal and FD rats (UPLC-MS/MS); format: in vivo; conditions: Sprague-Dawley, rat, oral CA extract (0.10 g/mL solution, 10 mL/kg); for AUC(0-inf) / AUC(0-t) / CL/F / Cmax / half-life: n = 6; for Tmax: n = 6, read-out: Tmax; for Vd/F: n = 6, read-out: Vz/F
Procedure: For PK experiments, an appropriate amount of the CA extract was weighed to prepare a 0.10 g/mL solution using physiological saline. Briefly, 12 SD rats were randomly assigned to normal and FD groups and were orally administered the prepared CA sample (10 mL/kg body weight). For assessment, 0.3 mL of blood was collected into heparinized tubes via the caudal vein before dosing and at 2, 5, 10, 15, 20, 30, and 45 min, and 1, 2, 4, 8, 12, 24, and 48 h after administration. Blood samples were then immediately centrifuged at 4,500 rpm for 15 min, and the obtained plasma samples were stored at −20°C until determination.
The PK parameters were analyzed using the non–compartment analysis using the WinNonLin 8.2 software (Phoenix, United States). All the data were expressed as mean ± standard deviation (SD). The normal and FD groups were compared using independent samples t–test in SPSS 22.0. Results with p values < 0.05 were considered statistically significant.

[4] = high QC (nominal 1666.00 / 3172.53 / 569.17 / 206.21 ng·mL^-1)
[5] = low QC (nominal 52.06 / 49.57 / 8.89 / 1.61 ng·mL^-1)
[6] = medium QC (nominal 208.25 / 396.57 / 71.13 / 25.78 ng·mL^-1)

## COc1cc(C(=O)O)cc(OC)c1O [Syringic acid]
[1]; [4]
  Measured concentration, 4°C for 24 h: 185.91 ± 1.51 ng/mL
  Measured concentration, Room temperature for 24 h: 196.89 ± 6.85 ng/mL
  Measured concentration, Three freeze-thaw cycles: 198.43 ± 6.85 ng/mL
[1]; [5]
  Measured concentration, 4°C for 24 h: 1.47 ± 0.10 ng/mL
  Measured concentration, Three freeze-thaw cycles: 1.42 ± 0.18 ng/mL
[1]; [6]
  Measured concentration, 4°C for 24 h: 22.75 ± 1.62 ng/mL
  Measured concentration, Room temperature for 24 h: 23.14 ± 1.80 ng/mL
  Measured concentration, Three freeze-thaw cycles: 23.32 ± 1.20 ng/mL
[2]; rat brain
  detection in the brain: not detected
[2]; rat tissues
  time after dosing at which eliminated in all tissues: 1 h
[2]; rats
  tissue with higher distribution: stomach
[3]; FD group rats
  AUC(0-inf): 1170 ± 357 ng·h/mL
  AUC(0-t): 498 ± 109 ng·h/mL
  CL/F: 1.83 mL/min/kg
  Cmax: 67.4 ± 3 ng/mL
  half-life: 37.7 ± 12.6 h
  Tmax: 0.25 ± 0.04 h
  Vd/F: 5.49 ± 0.69 L/kg
[3]; Normal group rats
  AUC(0-inf): 1150 ± 153 ng·h/mL
  AUC(0-t): 523 ± 54.3 ng·h/mL
  CL/F: 1.67 mL/min/kg
  Cmax: 72.2 ± 6.74 ng/mL
  half-life: 34.5 ± 6.73 h
  Tmax: 0.24 ± 0.03 h
  Vd/F: 5.07 ± 0.74 L/kg
